Patent US20100249076A1, “PRODRUGS OF 9-AMINOMETHYL TETRACYCLINE COMPOUNDS” (priority 2003, published 2010)
Like-named read-outs stand apart in the source and are kept apart here.

Columns and labels:
Assay type in all cases: in vivo
[1] = test system: S. pneumoniae 157E (tet^S); assay: Oral efficacy screen, murine model of S. pneumoniae systemic infection (survival); conditions: Streptococcus pneumoniae, 1 h, read-out: % survival at 10 (po) mg/kg
Method: The following example was used to assess the oral bioavailability of compounds of the invention in an oral efficacy screen in murine models of infection. The compounds were screened by administering a single 10 mg/kg oral dose to mice 1 hour after administration of a lethal intraperitoneal inoculum of S. pneumoniae 157E (tet^S).
In Table 1 below, compounds with a survival rate of ≧80% are indicated with ‘***”; compounds with a survival rate of ≧60% are indicated with ‘**” and compounds with a survival rate of […] are indicated with ‘*’. Compounds with a survival rate of less than 20% are indicated with ‘−’.

[2] = test system: S. pneumoniae 700905; assay: Oral efficacy (PD50) in mice with acute systemic infection by resistant S. pneumoniae; conditions: Streptococcus pneumoniae, resistant S. pneumoniae 700905
Method: (§1) Relative to linezolid, the PD50 values for a number of the compounds were within an 2-fold range against the resistant organism. Compounds with PD50 values of less than 7 mg/kg/dose are indicated with “***.” Compounds with PD50 values of less than 14 mg/kg/dose but greater than 7 mg/kg/dose are indicated with “**.” Compounds with PD50 values of greater than 14 mg/kg/dose, but less than 21 mg/kg/dose are indicated with “*.” Compounds with PD50 values greater than 21 mg/kg/dose are indicated with “−”

[3] = test system: S. pneumoniae 157E; assay: Oral efficacy (PD50) in mice with acute systemic infection by susceptible S. pneumoniae; conditions: Streptococcus pneumoniae, read-out: PD50, S. pneumoniae 157E
Method: as §1

[4] = mice, oral, acute systemic infection, susceptible S. pneumoniae 157E

SMILES	responders at 10 mg/kg [1] [%]	ED50 [2] [mg/kg]	ED50 ([3]; 157E, po) [mg/kg]	ED50 [3, 4] [mg/kg]
CN(C)c1cc(CN(CC(C)(C)C)C(=O)OCOC(=O)C(C)(C)C)c(O)c2c1C[C@H]1C[C@H]3[C@H](N(C)C)C(O)=C(C(N)=O)C(=O)[C@@]3(O)C(O)=C1C2=O [A]	> 80	< 7	< 7	
CC1(C)S[C@@H]2[C@H](NC(=O)[C@H](N)c3ccccc3)C(=O)N2[C@H]1C(=O)O [Ampicillin, reference compound]				14 to 21
CC[C@H]1OC(=O)[C@H](C)[C@@H](O[C@H]2C[C@@](C)(OC)[C@@H](O)[C@H](C)O2)[C@H](C)[C@@H](O[C@@H]2O[C@H](C)C[C@H](N(C)C)[C@H]2O)[C@](C)(O)C[C@@H](C)CN(C)[C@H](C)[C@@H](O)[C@]1(C)O [Azithromycin, reference compound]				7 to 14
CC(=O)OCOC(=O)N(Cc1cc(N(C)C)c2c(c1O)C(=O)C1=C(O)[C@]3(O)C(=O)C(C(N)=O)=C(O)[C@@H](N(C)C)[C@@H]3C[C@@H]1C2)CC(C)(C)C [B]	> 80	7 to 14	7 to 14	
CN(C)c1cc(CN(CC(C)(C)C)C(=O)OCOC(=O)c2ccccc2)c(O)c2c1C[C@H]1C[C@H]3[C@H](N(C)C)C(O)=C(C(N)=O)C(=O)[C@@]3(O)C(O)=C1C2=O [D]	> 0		< 7	
C[C@H]1c2cccc(O)c2C(=O)C2=C(O)[C@]3(O)C(=O)C(C(N)=O)=C(O)[C@@H](N(C)C)[C@@H]3[C@@H](O)[C@@H]21 [Doxycycline, reference compound]				< 7
CN(C)c1cc(CN(CC(C)(C)C)C(=O)OCOC(=O)CCc2ccccc2)c(O)c2c1C[C@H]1C[C@H]3[C@H](N(C)C)C(O)=C(C(N)=O)C(=O)[C@@]3(O)C(O)=C1C2=O [E]	> 0			
CN(C)c1cc(CN(CC(C)(C)C)C(=O)OCOC(=O)C2CCCCC2)c(O)c2c1C[C@H]1C[C@H]3[C@H](N(C)C)C(O)=C(C(N)=O)C(=O)[C@@]3(O)C(O)=C1C2=O [F]	> 60	14 to 21	< 7	
COc1ccc(C(=O)OCOC(=O)N(Cc2cc(N(C)C)c3c(c2O)C(=O)C2=C(O)[C@]4(O)C(=O)C(C(N)=O)=C(O)[C@@H](N(C)C)[C@@H]4C[C@@H]2C3)CC(C)(C)C)cc1 [G]	> 60		7 to 14	
CN(C)c1cc(CN(CC(C)(C)C)C(=O)OCOC(=O)CC(C)(C)C)c(O)c2c1C[C@H]1C[C@H]3[C@H](N(C)C)C(O)=C(C(N)=O)C(=O)[C@@]3(O)C(O)=C1C2=O [H]	> 80	7 to 14	< 7	
CC(OC(=O)N(Cc1cc(N(C)C)c2c(c1O)C(=O)C1=C(O)[C@]3(O)C(=O)C(C(N)=O)=C(O)[C@@H](N(C)C)[C@@H]3C[C@@H]1C2)CC(C)(C)C)OC(=O)C(C)(C)C (some centres unmarked) [I]	> 80	7 to 14		
COCC(=O)OCOC(=O)N(Cc1cc(N(C)C)c2c(c1O)C(=O)C1=C(O)[C@]3(O)C(=O)C(C(N)=O)=C(O)[C@@H](N(C)C)[C@@H]3C[C@@H]1C2)CC(C)(C)C [J]	> 0			
COCCC(=O)OCOC(=O)N(Cc1cc(N(C)C)c2c(c1O)C(=O)C1=C(O)[C@]3(O)C(=O)C(C(N)=O)=C(O)[C@@H](N(C)C)[C@@H]3C[C@@H]1C2)CC(C)(C)C [K]	> 80	14 to 21	< 7	
COCCOCC(=O)OCOC(=O)N(Cc1cc(N(C)C)c2c(c1O)C(=O)C1=C(O)[C@]3(O)C(=O)C(C(C)=O)=C(O)[C@@H](N(C)C)[C@@H]3C[C@@H]1C2)CC(C)(C)C [L]	> 60			
CC(=O)NC[C@H]1CN(c2ccc(N3CCOCC3)c(F)c2)C(=O)O1 [Linezolid, reference compound]		7 to 14		< 7
CN(C)c1cc(CN(CC(C)(C)C)C(=O)OCOC(=O)c2ccc(C(F)(F)F)cc2)c(O)c2c1C[C@H]1C[C@H]3[C@H](N(C)C)C(O)=C(C(N)=O)C(=O)[C@@]3(O)C(O)=C1C2=O [M]	> 80			
CN(C)c1ccc(O)c2c1C[C@H]1C[C@H]3[C@H](N(C)C)C(O)=C(C(N)=O)C(=O)[C@@]3(O)C(O)=C1C2=O [Minocycline, reference compound]				7 to 14
CN(C)c1cc(CN(CC(C)(C)C)C(=O)OCOC(=O)c2c(F)cccc2F)c(O)c2c1C[C@H]1C[C@H]3[C@H](N(C)C)C(O)=C(C(N)=O)C(=O)[C@@]3(O)C(O)=C1C2=O [N]	> 80	14 to 21		
CN(C)c1cc(CN(CC(C)(C)C)C(=O)OCOC(=O)Cc2ccccc2)c(O)c2c1C[C@H]1C[C@H]3[C@H](N(C)C)C(O)=C(C(N)=O)C(=O)[C@@]3(O)C(O)=C1C2=O [O]	> 60	7 to 14		
CCC(=O)OCOC(=O)N(Cc1cc(N(C)C)c2c(c1O)C(=O)C1=C(O)[C@]3(O)C(=O)C(C(N)=O)=C(O)[C@@H](N(C)C)[C@@H]3C[C@@H]1C2)CC(C)(C)C [P]	> 80	14 to 21		
CCCC(=O)OCOC(=O)N(Cc1cc(N(C)C)c2c(c1O)C(=O)C1=C(O)[C@]3(O)C(=O)C(C(N)=O)=C(O)[C@@H](N(C)C)[C@@H]3C[C@@H]1C2)CC(C)(C)C [Q]	> 80	14 to 21		
CC(C)C(=O)OCOC(=O)N(Cc1cc(N(C)C)c2c(c1O)C(=O)C1=C(O)[C@]3(O)C(=O)C(C(N)=O)=C(O)[C@@H](N(C)C)[C@@H]3C[C@@H]1C2)CC(C)(C)C [R]	> 80	7 to 14		
